# Literature values, collected in USRE39151E1, “Process for the preparation and purification of thiol-containing maytansinoids” (Immunogen, Inc., priority 2000, dated 2006).
# Key:
# [1] = tested on: LY5178 murine leukemic cell suspensions; settings: in vitro, LY5178 cell suspension
# [2] = tested on: human acute lymphoblastic leukemia line C.E.M.
# [3] = tested on: L1210 murine leukemic cell suspensions; settings: in vitro, L1210 cell suspension
# [4] = tested on: P388 murine leukemic cell suspensions; settings: in vitro, P388 cell suspension
# [5] = tested on: Lewis lung carcinoma system
# [6] = tested on: B-16 melanocarcinoma system
# [7] = tested on: P388 lymphocytic leukemia system; settings: in vivo
# L1210 cells = L1210 cells treated in vivo; untreated control mitotic index 3.2 to 5.8%
# tubulin = settings: sea urchin eggs and clam eggs
# [8] = versus methotrexate, daunorubicin, and vincristine
# [9] = tested on: human nasopharyngeal carcinoma cells
# [10] = tested on: L1210 mouse leukemia system
# [11] = patients
structure (smiles),measurement,setting,value
COc1cc2cc(c1Cl)N(C)C(=O)C[C@H](OC(=O)[C@H](C)N(C)C(C)=O)[C@]1(C)O[C@H]1[C@H](C)[C@@H]1C[C@@](O)(NC(=O)O1)[C@H](OC)/C=C/C=C(\C)C2 [maytansine],inhibitory dose,[1],10^−3 to 10^−1 microgram/mL
same,inhibitory concentration,[2],≥ 10^−7 microgram/ml
same,inhibitory dose,[3],10^−3 to 10^−1 microgram/mL
same,inhibitory dose,[4],10^−3 to 10^−1 microgram/mL
same,inhibitory activity in vivo,[5],significant inhibitory activity
same,inhibitory activity in vivo,[6],significant inhibitory activity
same,dosage range over which tumor growth was inhibited,[7],50- to 100 fold
same,cells accumulating in mitosis,L1210 cells,67%
same,effect on mitosis / microtubule formation,tubulin,inhibits mitosis by interfering with the formation of microtubules
same,fold more cytotoxic than conventional cancer chemotherapeutic agents,[8],100 to 1000 fold
same,inhibition of in vitro growth,[9],active inhibitor
same,inhibitory activity in vivo,[10],significant inhibitory activity
same,adverse effects in clinical trials,[11],associated with peripheral neuropathy that might be cumulative
same,outcome of clinical trials,[11],not favorable due to a number of side effects
